The results in this text go back to US20230293599A1, “BACTERIAL COMPOSITIONS WITH ANTI-INFLAMMATORY ACTIVITY” (Universiteit Gent, priority 2020, published 2023).

One experiment deals with P. aeruginosa. Briefly: Biolog Phenotype Microarray PM1-2 growth on carbon sources. It counts as cell-based, Pseudomonas aeruginosa.
Conditions: not given
As to the method:
(§1) Using Phenotype Microarray (PM) panels (Biolog), the influence of 190 carbon sources on the growth of the potential probiotic species R. mucilaginosa, R. dentocariosa, R. gilardii, G. haemolysans, and common respiratory pathogens P. aeruginosa, and S. aureus was determined. PM1 and PM2 panels (Biolog) were inoculated according to the manufacturer's instructions. Growth curves were generated for 35 hours by measuring the absorbance at 590 nm using an EnVision (Perkin Elmer) plate reader.
`O=C1O[C@@H]([C@H](O)CO)[C@H](O)[C@H]1O` [D-Galactonic-Acid-γ-Lactone]: the “AUC of growth curve, P. aeruginosa” value is 397.9.

The experiment is the same for the next values; noted with them: 35 hours, absorbance 590 nm, n = 1; cells without values AUC < 50.
Take `C[N+](C)(C)CC(O)CC(=O)[O-]` (racemic) [D,L-Carnitine]: the “AUC of growth curve, P. aeruginosa” value was 574.6.

Turning to `NCC(O)c1ccc(O)cc1` (racemic) [D,L-Octopamine], the “AUC of growth curve, P. aeruginosa” value came out at 1142.2. Regarding `NCCO` [2-Aminoethanol], the “AUC of growth curve, P. aeruginosa” value is 293.7. In the case of `O=C[C@@H](O)[C@H](O[C@@H]1O[C@H](CO)[C@H](O)[C@H](O)[C@H]1O)[C@H](O)CO` [3-0-β-D-Galacto-pyranosyl-D-Arabinose], the “AUC of growth curve, P. aeruginosa” value turned out to be 188.8. Regarding `CC(=O)C(C)O` (centres unmarked) [3-Hydroxy 2-Butanone], the “AUC of growth curve, P. aeruginosa” value worked out at 183.2. Turning to `O=C(O)c1ccc(O)cc1` [4-Hydroxy Benzoic Acid], the “AUC of growth curve, P. aeruginosa” value stood at 909.3. Still for that read-out and setting: the figure for `CC(N)=O` [Acetamide] is 123.0. Consider `CC(O)(CC(=O)O)C(=O)O` (centres unmarked) [Citramalic Acid], for which the “AUC of growth curve, P. aeruginosa” value was found to be 183.9. As to `C[C@@H](N)C(=O)O` [D-Alanine], the “AUC of growth curve, P. aeruginosa” value is listed as 668.1. As to `N[C@H](CC(=O)O)C(=O)O` [D-Aspartic Acid], the “AUC of growth curve, P. aeruginosa” value is 101.3.

As for `OC[C@H]1O[C@@H](O[C@H]2[C@H](O)[C@@H](O)[C@H](O)O[C@@H]2CO)[C@H](O)[C@@H](O)[C@@H]1O` [D-Cellobiose], the “AUC of growth curve, P. aeruginosa” value amounted to 70.0. `OC[C@@H](O)[C@H](O)[C@H](O)[C@@H](O)CO` [Dulcitol]: the “AUC of growth curve, P. aeruginosa” value is listed as 72.0. As to `C=C(CC(=O)O)C(=O)O` [Itaconic Acid], the “AUC of growth curve, P. aeruginosa” value is reported as 790.8. The same measure, in the same setting: the figure for `NCCc1ccc(O)cc1` [Tyramine] is 684.5; for `O=C(O)Cc1cccc(O)c1` [m-Hydroxy Phenyl Acetic Acid] it is 114.0. Still for that read-out and setting: the figure for `O=C(O)Cc1ccc(O)cc1` [p_Hydroxy Phenyl Acetic Acid] is 987.9.

A further experiment concerns S. aureus.
Experiment: not given
Conditions: not given
In kind it is cell-based, Staphylococcus aureus. As to the method:
as §1
As for `OC[C@H]1O[C@@H](O[C@@H]2[C@@H](CO)OC(O)(CO)[C@H]2O)[C@H](O)[C@@H](O)[C@H]1O` (mixture of isomers) [Lactulose], the “AUC of growth curve, S. aureus” value is on record as 656.2. As to `NCC(O)c1ccc(O)cc1` (racemic) [D,L-Octopamine], the “AUC of growth curve, S. aureus” value was 166.2. On to `CC(O)CO` (centres unmarked) [1,2-Propanediol], for which the “AUC of growth curve, S. aureus” value is recorded as 150.0.

In the case of `Nc1ncnc2c1ncn2C1CC(O)C(CO)O1` (centres unmarked) [2-Deoxy-Adenosine], the “AUC of growth curve, S. aureus” value is given as 419.1. With `O=C[C@@H](O)[C@H](O[C@@H]1O[C@H](CO)[C@H](O)[C@H](O)[C@H]1O)[C@H](O)CO` [3-0-β-D-Galacto-pyranosyl-D-Arabinose], the “AUC of growth curve, S. aureus” value is 446.3. The same measure, in the same setting: the figure for `CC(=O)C(C)O` (centres unmarked) [3-Hydroxy 2-Butanone] is 255.6; for `O=C(O)c1ccc(O)cc1` [4-Hydroxy Benzoic Acid] it is 140.6.

Turning to `CC(N)=O` [Acetamide], the “AUC of growth curve, S. aureus” value worked out at 93.1.

On to `N#C[C@H](O[C@@H]1O[C@H](CO[C@@H]2O[C@H](CO)[C@@H](O)[C@H](O)[C@H]2O)[C@@H](O)[C@H](O)[C@H]1O)c1ccccc1` [Amygdalin], for which the “AUC of growth curve, S. aureus” value is given as 254.6. Consider `CCCC(=O)O` [Butyric Acid], for which the “AUC of growth curve, S. aureus” value came to 1011.5. Turning to `CCCCCC(=O)O` [Caproic Acid], the “AUC of growth curve, S. aureus” value was 908.9. With `C/C(=C/C(=O)O)C(=O)O` [Citraconic Acid], the “AUC of growth curve, S. aureus” value is reported as 86.7. `C[C@@H](N)C(=O)O` [D-Alanine]: the “AUC of growth curve, S. aureus” value worked out at 464.9. The same measure, in the same setting: with `OC[C@@H](O)C(O)[C@H](O)CO` [D-Arabitol] the figure was 832.3.

`N[C@H](CC(=O)O)C(=O)O` [D-Aspartic Acid]: the “AUC of growth curve, S. aureus” value turned out to be 242.2. On to `N[C@@H](C(=O)O)[C@@H](O)[C@H](O)[C@H](O)CO` [D-Glucosaminic Acid], for which the “AUC of growth curve, S. aureus” value was found to be 267.3. As for `O=P(O)(O)O[C@H]1O[C@H](CO)[C@@H](O)[C@H](O)[C@H]1O` [D-Glucose-1-Phosphate], the “AUC of growth curve, S. aureus” value is on record as 189.0. On to `OC[C@H]1O[C@H](OC[C@H]2O[C@H](O[C@]3(CO)O[C@H](CO)[C@@H](O)[C@@H]3O)[C@H](O)[C@@H](O)[C@@H]2O)[C@H](O)[C@@H](O)[C@H]1O` [D-Rafinose], for which the “AUC of growth curve, S. aureus” value is reported as 282.1. In the case of `O=C1O[C@H](CO)[C@@H](O)[C@H]1O` [D-Ribono-1,4-Lactone], the “AUC of growth curve, S. aureus” value turned out to be 100.2. On to `N[C@H](CO)C(=O)O` [D-Serine], for which the “AUC of growth curve, S. aureus” value was 76.2. Regarding `C[C@H](O)[C@@H](N)C(=O)O` [D-Threonine], the “AUC of growth curve, S. aureus” value turned out to be 87.8. For the molecule `O=CO` [Formic Acid], the “AUC of growth curve, S. aureus” value is on record as 474.0.

As to `O=C(O)CO` [Glycolic Acid], the “AUC of growth curve, S. aureus” value is 344.8. Regarding `C[C@H](N)C(N)=O` [L-Alaninamide], the “AUC of growth curve, S. aureus” value is reported as 295.4. Turning to `OC[C@H](O)C(O)[C@@H](O)CO` [L-Arabitol], the “AUC of growth curve, S. aureus” value is given as 165.7.

As to `O=C[C@@H](O)[C@H](O)[C@@H](O)[C@@H](O)CO` [L-Glucose], the “AUC of growth curve, S. aureus” value was 314.7. In the case of `N[C@@H](CO)C(=O)O` [L-Serine], the “AUC of growth curve, S. aureus” value was determined as 558.2. Regarding `O=C(O)[C@H](O)[C@@H](O)C(=O)O` [L-Tartaric Acid], the “AUC of growth curve, S. aureus” value was 163.4. Still for that read-out and setting: the figure for `C[C@@H](O)[C@H](N)C(=O)O` [L-Threonine] is 754.3; for `OC[C@@H](O)[C@@H](O[C@@H]1O[C@H](CO)[C@H](O)[C@H](O)[C@H]1O)[C@H](O)[C@@H](O)CO` [Lactitol] it is 338.8. Turning to `OC[C@@H](O)[C@@H](O[C@H]1O[C@H](CO)[C@@H](O)[C@H](O)[C@H]1O)[C@H](O)[C@@H](O)CO` [Maltitol], the “AUC of growth curve, S. aureus” value stood at 783.0.

Turning to `O=C(O)[C@H](O)[C@@H](O)[C@H](O)[C@H](O)CO[C@H]1O[C@H](CO)[C@H](O)[C@H](O)[C@H]1O` [Melibionic Acid], the “AUC of growth curve, S. aureus” value stood at 270.3. With `COC(=O)CCC(=O)O` [Mono Methyl Succinate], the “AUC of growth curve, S. aureus” value was determined as 532.1.

`CC(=O)N[C@H]1C(O)O[C@H](CO)[C@H](O)[C@@H]1O` (stereo partly drawn) [N-Acetyl-D-Galactosamine]: the “AUC of growth curve, S. aureus” value came to 59.3. Regarding `CC(=O)N[C@@H](CO)[C@@H](O)[C@H](O)[C@H](O)CO` [N-Acetyl-D-Glucosaminitol], the “AUC of growth curve, S. aureus” value was found to be 381.9. As for `CC(=O)N[C@H]1[C@H]([C@H](O)[C@H](O)CO)OC(O)(C(=O)O)C[C@@H]1O` (some centres unmarked) [N-Acetyl-Neuraminic Acid], the “AUC of growth curve, S. aureus” value is listed as 647.5.

Regarding `O=C(O)C(=O)O` [Oxalic Acid], the “AUC of growth curve, S. aureus” value was 463.7. Regarding `O=C(O)CCCCCCCCC(=O)O` [Sebacic Acid], the “AUC of growth curve, S. aureus” value turned out to be 252.2. As for `OC[C@@]12OC[C@@H](O1)[C@@H](O)[C@@H](O)[C@@H]2O` [Sedoheptulosan], the “AUC of growth curve, S. aureus” value amounted to 277.8. In the case of `OC[C@H]1O[C@H](OC[C@H]2O[C@H](OC[C@H]3O[C@H](O[C@]4(CO)O[C@H](CO)[C@@H](O)[C@@H]4O)[C@H](O)[C@@H](O)[C@@H]3O)[C@H](O)[C@@H](O)[C@H]2O)[C@H](O)[C@@H](O)[C@H]1O` [Stachyose], the “AUC of growth curve, S. aureus” value was 324.4. Regarding `Cc1cn([C@H]2C[C@H](O)[C@@H](CO)O2)c(=O)[nH]c1=O` [Thymidine], the “AUC of growth curve, S. aureus” value is recorded as 735.9. The same measure, in the same setting: the figure for `OC[C@@H](O)[C@H](O)[C@@H](O)CO` [Xylitol] is 280.8. In the case of `O[C@H]1[C@H](O)[C@@H](O)[C@H](O)[C@@H](O)[C@H]1O` [m-inositol], the “AUC of growth curve, S. aureus” value turned out to be 157.9. As to `OC[C@H]1O[C@@H](O[C@H]2[C@H](O)[C@@H](O)[C@@H](O)O[C@@H]2CO)[C@H](O)[C@@H](O)[C@H]1O` [α-D-Lactose], the “AUC of growth curve, S. aureus” value stood at 764.6. For the molecule `CCC(O)C(=O)O` (stereo not drawn) [α-Hydroxy-Butyric Acid], the “AUC of growth curve, S. aureus” value amounted to 567.8. Turning to `O=C1CCC(C(=O)O)O1` (stereo not drawn) [α-Hydroxy-Glutaric Acid γ-Lactone], the “AUC of growth curve, S. aureus” value came out at 112.1.

On to `CCCC(=O)C(=O)O` [α-Keto-Valeric Acid], for which the “AUC of growth curve, S. aureus” value turned out to be 734.6. For `CO[C@H]1O[C@H](CO)[C@@H](O)[C@H](O)[C@H]1O` [α-Methyl-D-Glucoside], the “AUC of growth curve, S. aureus” value turned out to be 281.5. Turning to `COC1OC(CO)C(O)C(O)C1O` [α-Methyl-D-Mannoside], the “AUC of growth curve, S. aureus” value worked out at 264.2. As for `OC[C@H]1O[C@@H](O)[C@H](O)[C@H](O)[C@@H]1O` [β-D-Allose], the “AUC of growth curve, S. aureus” value is given as 122.9. Consider `CC(O)CC(=O)O` (stereo not drawn) [β-Hydroxy Butyric Acid], for which the “AUC of growth curve, S. aureus” value is reported as 326.7. On to `CO[C@@H]1O[C@H](CO)[C@@H](O)[C@H](O)[C@H]1O` [β-Methyl-D-Galactoside], for which the “AUC of growth curve, S. aureus” value was 358.9. As for `CO[C@@H]1O[C@H](C(=O)O)[C@@H](O)[C@H](O)[C@H]1O` [β-Methyl-D-Glucuronic Acid], the “AUC of growth curve, S. aureus” value is recorded as 400.6. For the molecule `COC1OCC(O)C(O)C1O` [β-Methyl-D-Xyloside], the “AUC of growth curve, S. aureus” value amounted to 166.1. Regarding `O=C(O)CCCO` [γ-Hydroxy Butyric Acid], the “AUC of growth curve, S. aureus” value was 343.7. In the case of Tween 20, the “AUC of growth curve, S. aureus” value amounted to 214.4. Consider Tween 80, for which the “AUC of growth curve, S. aureus” value is given as 468.6.

The same experiment, now with this note: 35 hours, absorbance 590 nm, n = 1; cells without values AUC < 50.
With `CC(=O)O` [Acetic Acid], the “AUC of growth curve, S. aureus” value came out at 898.7. With `OC[C@H]1O[C@@H](O[C@H]2[C@H](O)[C@@H](O)[C@H](O)O[C@@H]2CO)[C@H](O)[C@@H](O)[C@@H]1O` [D-Cellobiose], the “AUC of growth curve, S. aureus” value stood at 495.8.

With `NCCCC[C@H](N)C(=O)O` [L-Lysine], the “AUC of growth curve, S. aureus” value is recorded as 331.6. With Chondroitin Sulfate C, the “AUC of growth curve, S. aureus” value stood at 199.7.

With Gelatin, the “AUC of growth curve, S. aureus” value was 52.4. Consider Gentiobiose, for which the “AUC of growth curve, S. aureus” value stood at 471.4. Regarding Glycogen, the “AUC of growth curve, S. aureus” value is listed as 197.7.

As for Laminarin, the “AUC of growth curve, S. aureus” value was found to be 192.8. On to Mannan, for which the “AUC of growth curve, S. aureus” value was found to be 154.5.
